Test results taken from patent publication US20050272036A1, “Ketones” (priority 2002, published 2005).
pIC50: −log10 of the molar value.

Tested on: Pancreatic islets
Assay: not given
Conditions: pancreatic islets (Davani B et al. 2000); cited from earlier work

SMILES	effects of 11-dehydocorticosterone on insulin release
CC1(C)[C@@H](OC(=O)CCC(=O)O)CC[C@]2(C)[C@H]3C(=O)C=C4[C@@H]5C[C@@](C)(C(=O)O)CC[C@]5(C)CC[C@@]4(C)[C@]3(C)CC[C@@H]12 [carbenoxolone]	can inhibit the effects of 11-dehydocorticosterone on insulin release

Biological target: T1, human 11βHSD1 enzyme (Homo sapiens, UniProt P28845)
T1 construct: a construct containing full-length human 11βHSD1 enzyme (in pCMVHyg); expressed in transfected cells
T1 sequence (P28845 whole entry): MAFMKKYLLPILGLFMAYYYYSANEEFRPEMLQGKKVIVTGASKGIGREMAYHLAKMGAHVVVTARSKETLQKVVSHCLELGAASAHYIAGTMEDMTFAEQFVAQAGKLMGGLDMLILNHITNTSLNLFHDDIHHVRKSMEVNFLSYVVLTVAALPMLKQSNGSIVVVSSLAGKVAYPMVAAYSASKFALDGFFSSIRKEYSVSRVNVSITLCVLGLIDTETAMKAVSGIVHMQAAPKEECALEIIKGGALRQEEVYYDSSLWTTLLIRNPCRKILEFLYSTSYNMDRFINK
Assay: HeLa GRE4-βGal/11βHSD1 cell reporter assay (cortisone to cortisol, β-galactosidase readout)
Type: cell-based
Conditions: HeLa GRE4-βGal/11βHSD1 cells, cortisone 1 μM, overnight incubation, absorbance at 570 nm
Description: HeLa cells (human cervical carcinoma derived cells) were stably transfected with a construct containing four copies of the glucocorticoid response element (GRE) linked to a beta-galactosidase reporter gene (3 kb lac Z gene derived from pSV-B-galactosidase). These cells were then further stably transfected with a construct containing full-length human 11βHSD1 enzyme (in pCMVHyg) to create GRE4-βGal/11βHSD1 cells. The principal of the assay is as follows. Cortisone is freely taken up by the cells and is converted to cortisol by 11βHSD1 oxo-reductase activity and cortisol (but not cortisone) binds to and activates the glucocorticoid receptor. Activated glucocorticoid receptor then binds to the GRE and initiates transcription and translation of β-galactosidase. Enzyme activity can then be assayed with high sensitivity by colourimetric assay.
Cells were routinely cultured in DMEM (Invitrogen, Paisley, Renfrewshire, UK) containing 10% foetal calf serum (LabTech), 1% glutamine (Invitrogen), 1% penicillin & streptomycin (Invitrogen), 0.5 mg/ml G418 (Invitrogen) & 0.5 mg/ml hygromycin (Boehringer). Assay media was phenol red free-DMEM containing 1% glutamine, 1% penicillin & streptomycin.
Compounds (1 mM) to be tested were dissolved in dimethyl sulphoxide (DMSO) and serially diluted into assay media containing […]. […]
A cocktail (25 μl) consisting of 10× Z-buffer (600 mM Na2HPO4, 400 mM NaH2PO4.2H2O, 100 mM KCl, 10 MM MgSO4.7H2O, 500 mM β-mercaptoethanol, pH 7.0), SDS (0.2%), chlorophenol red-β-D-galactopyranoside (5 mM, Roche Diagnostics) was added per well and plates incubated at 37° C. for 3-4 hours. β-Galactosidase activity was indicated by a yellow to red colour change (absorbance at 570 nm) measured using a Tecan Spectrafluor Ultra.
The calculation of median inhibitory concentration (IC50) values for the inhibitors was performed using Origin 6.0 (Microcal Software, Northampton Mass. USA). Dose response curves for each inhibitor were plotted as OD units at each inhibitor concentration with relation to a maximum signal (cortisone, no compound) and IC50 values calculated. […]

pIC50	SMILES
6.81	CC(=O)Nc1ccc(OCC(=O)c2ccc(Cl)cc2)cc1 [Example 155, (4-Chlorophenyl)-(4-acetylaminophenoxymethyl)-ketone]
7.11	Cc1ccc(C(=O)Cc2ccsc2)cc1 [Example 3, (Thien-3-ylmethyl)-(4-methylphenyl)-ketone]
7.03	O=C(CS(=O)(=O)N1CCCC1)c1ccc(F)cc1 [Example 79, (4-Fluorophenyl)-(pyrrolidin-1-ylsulphonylmethyl)-ketone]

Tested on: not given
Assay: not given
Conditions: not given

SMILES	melting point
O=C(c1ccccc1)C(Cc1ccc(Cl)cc1)c1cccnn1 (centres unmarked) [Example 13, [2-(4-Chlorophenyl)-1-(pyridazin-3yl)ethyl]-(phenyl)-ketone]	140 to 142 °C
O=C(Cn1cnc2ccccc21)c1ccc(Cl)cc1Cl [Example 7, (Benzimidazol-1-ylmethyl)-(2,4-dichlorophenyl)-ketone]	130 to 132 °C
O=C(CS(=O)(=O)c1ccccc1)c1ccccn1 [Example 100, (Phenylsulphonylmethyl)-(pyrid-2-yl)-ketone]	101 to 103 °C
O=C(c1ccc(Cl)cc1)C(Cn1cncn1)c1ccc(Cl)cc1 (stereo not drawn) [Reference Example 16, (4-Chlorophenyl)-[α-(1,2,4-triazol-1-ylmethyl)-4-chlorobenzyl]-ketone]	126 to 128 °C
Cc1ccc(CC(C(=O)c2ccccc2)N2CCCCC2)cc1 (centres unmarked)	71 to 72 °C

The remaining lines, values ahead:

melting point	SMILES
125 to 126 °C	O=C(Cc1ccc(Br)cc1)c1ccc(Cl)cc1 [RE 3, (4-Bromobenzyl)-(4-chlorophenyl)-ketone]
99 to 103 °C	O=C(Cc1ccc(Cl)c(Cl)c1)c1ccc(Cl)cc1 [Example 4, (4-Chlorophenyl)-(3,4-dichlorophenylmethyl)-ketone]
107 to 111 °C	Cc1ccc(C(=O)Cc2ccccc2)cc1 [Reference Example 11, (Benzyl)-(4-methylphenyl)-ketone]
114 to 115 °C	Cc1ccc(C(=O)CCc2ccc(N3CCN(c4ccncc4)CC3)cc2)cc1 [Reference Example 55, {4-[1-(Pyrid-4-yl)piperazin-4-yl]phenethyl}-(4-methylphenyl)-ketone]
100 to 102 °C	O=C(c1cccnc1)C(Cc1ccc(F)cc1)c1ccccc1 (stereo not drawn) [Example 10, [α-(4-Fluorobenzyl)benzyl]-(pyrid-3-yl)-ketone]
66 to 67 °C	O=C(CCc1ccc(F)cc1)c1ccc(C(F)(F)F)cc1 [Example 19, (4-Fluorophenethyl)-(4-trifluoromethylphenyl)-ketone]
128 to 129 °C	O=C(Cc1ccc(Cl)cc1)c1ccc(Br)cc1 [Reference Example 3, (4-Bromophenyl)-(4-chlorobenzyl)-ketone]
68 to 69 °C	COc1ccc(C(=O)Cc2ccccc2)cc1 [Reference Example 5, (4-Methoxyphenyl)-(benzyl)-ketone]
